Tested on: P12-Ichikawa
Experiment: cell viability relative to DMSO control; higher = less cytotoxic
Details: 48 h
Procedure, shortened: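 Viability, reported as a per-plate percentage of DMSO wells with cell-free wells as background, came from CellTiter-Glo One luminescence. Reading took place after 48 h at 37°C. Before that, NOMO1 or SEM (500 cells/well) or P12-Ichikawa (1000 cells/well) leukemia cells, adapted for at least four passages in each medium, were seeded in 1536-well plates (5 μl) and pin-dosed with library compounds in DMSO, 47 μM to 0.79 nM over 11 threefold points.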

[1] = HPLM + 10% dialyzed FBS, 0.000781 µM
[2] = HPLM + 10% dialyzed FBS, 0.00234 µM
[3] = HPLM + 10% dialyzed FBS, 0.00702 µM
[4] = HPLM + 10% dialyzed FBS, 0.0211 µM
[5] = HPLM + 10% dialyzed FBS, 0.0632 µM
[6] = HPLM + 10% dialyzed FBS, 0.19 µM
[7] = HPLM + 10% dialyzed FBS, 0.569 µM
[8] = HPLM + 10% dialyzed FBS, 1.71 µM
[9] = HPLM + 10% dialyzed FBS, 5.12 µM
[10] = HPLM + 10% dialyzed FBS, 15.4 µM
[11] = HPLM + 10% dialyzed FBS, 46.1 µM
[12] = RPMI 5 mM glucose + 10% FBS, 0.000781 µM
[13] = RPMI 5 mM glucose + 10% FBS, 0.00234 µM
[14] = RPMI 5 mM glucose + 10% FBS, 0.00702 µM
[15] = RPMI 5 mM glucose + 10% FBS, 0.0211 µM
[16] = RPMI 5 mM glucose + 10% FBS, 0.0632 µM
[17] = RPMI 5 mM glucose + 10% FBS, 0.19 µM
[18] = RPMI 5 mM glucose + 10% FBS, 0.569 µM
[19] = RPMI 5 mM glucose + 10% FBS, 1.71 µM
[20] = RPMI 5 mM glucose + 10% FBS, 5.12 µM
[21] = RPMI 5 mM glucose + 10% FBS, 15.4 µM
[22] = RPMI 5 mM glucose + 10% FBS, 46.1 µM
[23] = RPMI 5 mM glucose + 10% dialyzed FBS, 0.000781 µM
[24] = RPMI 5 mM glucose + 10% dialyzed FBS, 0.00234 µM
[25] = RPMI 5 mM glucose + 10% dialyzed FBS, 0.00702 µM
[26] = RPMI 5 mM glucose + 10% dialyzed FBS, 0.0211 µM
[27] = RPMI 5 mM glucose + 10% dialyzed FBS, 0.0632 µM
[28] = RPMI 5 mM glucose + 10% dialyzed FBS, 0.19 µM
[29] = RPMI 5 mM glucose + 10% dialyzed FBS, 0.569 µM
[30] = RPMI 5 mM glucose + 10% dialyzed FBS, 1.71 µM
[31] = RPMI 5 mM glucose + 10% dialyzed FBS, 5.12 µM
[32] = RPMI 5 mM glucose + 10% dialyzed FBS, 15.4 µM
[33] = RPMI 5 mM glucose + 10% dialyzed FBS, 46.1 µM

Compound	cell viability [1] [%]	cell viability [2] [%]	cell viability [3] [%]	cell viability [4] [%]	cell viability [5] [%]	cell viability [6] [%]	cell viability [7] [%]	cell viability [8] [%]	cell viability [9] [%]	cell viability [10] [%]	cell viability [11] [%]	cell viability [12] [%]	cell viability [13] [%]	cell viability [14] [%]	cell viability [15] [%]	cell viability [16] [%]	cell viability [17] [%]	cell viability [18] [%]	cell viability [19] [%]	cell viability [20] [%]	cell viability [21] [%]	cell viability [22] [%]	cell viability [23] [%]	cell viability [24] [%]	cell viability [25] [%]	cell viability [26] [%]	cell viability [27] [%]	cell viability [28] [%]	cell viability [29] [%]	cell viability [30] [%]	cell viability [31] [%]	cell viability [32] [%]	cell viability [33] [%]
Nc1ccccc1NC(=O)c1ccc(CNc2nccc(-c3cccnc3)n2)cc1	106	107	108	113	110	120	113	85.6	7.68	6.63	7	101	106	109	110	111	110	114	71.1	9.5	6.39	6.22	109	107	113	122	122	117	110	83	8.72	7.24	6.17
Fc1ccc(C(c2ccc(F)cc2)N2CCN(C/C=C/c3ccccc3)CC2)cc1	110	121	111	109	109	114	108	108	103	99.1	96.5	118	112	109	121	116	119	112	107	110	106	104	113	104	121	109	102	110	114	106	104	98	95.2
O=C(O)c1ccc2cc(-c3ccc(O)c(C45CC6CC(CC(C6)C4)C5)c3)ccc2c1	124	119	124	121	121	107	66.5	19.2	10.4	9.2	7.25	116	123	134	122	117	96.9	57.1	16	8.71	8.22	5.78											
CC/1=C/N([C@@H]2C[C@@H](O)[C@H](CO)O2)C(=O)NC1=O	93.7	89.4	96.2	85.5	78.7	83.4	91.7	86.1	73.7	74.2	8.14	75.2	86.7	83.5	85.8	65.9	80.7	90.2	76	62.3	69.5	6.95	76.3	84.6	79.8	75.9	61.6	73.3	81.8	81	61	64.3	12.2
O=C(O)c1ccccc1C(=O)Nc1ccc(-c2ccccc2)cc1	123	118	128	124	128	125	123	119	122	114	108												119	123	124	124	138	123	119	124	117	130	113
ClC1=CC=C(CCCOC/2=N/NC(=O)C(=C2NCC3=CN=CC=C3)/Br)C=C1	115	115	113	117	118	110	104	95.5	61.6	35.7	14.4	109	114	110	122	125	124	113	112	96.3	69.6	38.5	113	115	116	110	110	115	106	90.4	56.7	26.9	13.7
FC(F)(F)c1ccc(Nc2nc3cc(Oc4ccnc(-c5ncc(C(F)(F)F)[nH]5)c4)ccc3[nH]2)cc1	118	111	115	120	122	115	117	123	118	112	71.3	119	119	127	123	130	122	127	137	130	111	67.8											
CC[C@H]1OC(=O)[C@H](C)[C@@H](O[C@H]2C[C@@](C)(OC)[C@@H](O)[C@H](C)O2)[C@H](C)[C@@H](O[C@@H]2O[C@@H](C)C[C@H](N(C)C)[C@H]2O)[C@](C)(O)C[C@@H](C)C(=O)[C@H](C)[C@@H](O)[C@]1(C)O	83.8	88.3	94.6	98.3	91.2	89.9	97.9	94.6	84	57.4	18.4	84.9	87	85.6	91.3	87.6	90	91.7	87.8	87.3	91.8	13.6	88.4	84.3	88.7	91.8	84.1	93.4	89.3	92.9	89.8	88.4	28
